According to PubChem BioAssay AID1963960 (Molecular Pharmacology Branch, DTP, NCI, 2024):

Tested on: MDA-MB-468 spheroids with HUVEC/MSC, viability
Experiment: Anticancer human tumor MDA-MB-468 cell line growth inhibition [PI3K];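 also: spheroids exposed to agents for seven days before readout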;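 as to viability, T/C: 100% = DMSO vehicle control viability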
Conditions: for IC50: curve of first compound; for viability, T/C: stronger effect = lower value
In short: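 Viability of mixed-cell spheroids was determined after exposure to pairwise combinations, one partner being inavolisib, alpelisib, duvelisib or copanlisib. Highest tested concentration matched clinical Cmax where known and 10 microM where not, descending in half-log steps.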

[1] = second compound 0.0316 µM, first compound 0.0316 µM
[2] = second compound 0.0316 µM, first compound 0.1 µM
[3] = second compound 0.0316 µM, first compound 0.316 µM
[4] = second compound 0.0316 µM, first compound 1 µM
[5] = second compound 0.1 µM, first compound 0.0316 µM
[6] = second compound 0.1 µM, first compound 0.1 µM
[7] = second compound 0.1 µM, first compound 0.316 µM
[8] = second compound 0.1 µM, first compound 1 µM
[9] = second compound 0.316 µM, first compound 0.0316 µM
[10] = second compound 0.316 µM, first compound 0.1 µM
[11] = second compound 0.316 µM, first compound 0.316 µM
[12] = second compound 0.316 µM, first compound 1 µM
[13] = second compound 1 µM, first compound 0.0316 µM
[14] = second compound 1 µM, first compound 0.1 µM
[15] = second compound 1 µM, first compound 0.316 µM
[16] = second compound 1 µM, first compound 1 µM
[17] = second compound 3.16 µM, first compound 0.0316 µM
[18] = second compound 3.16 µM, first compound 0.1 µM
[19] = second compound 3.16 µM, first compound 0.316 µM
[20] = second compound 3.16 µM, first compound 1 µM
[21] = second compound 10 µM, first compound 0.0316 µM
[22] = second compound 10 µM, first compound 0.1 µM
[23] = second compound 10 µM, first compound 0.316 µM
[24] = second compound 10 µM, first compound 1 µM

Cn1cnc2c(F)c(Nc3ccc(Br)cc3Cl)c(C(=O)NOCCO)cc21 + CC(Nc1ccc2c(c1)OCCn1cc(N3C(=O)OCC3C(F)F)nc1-2)C(N)=O
IC50 (second compound 0.00316 µM): > 3000 nM
IC50 (second compound 0.01 µM): > 3000 nM
IC50 (second compound 0.0316 µM): > 3000 nM
IC50 (second compound 0.1 µM): > 3000 nM
IC50 (second compound 0.316 µM): > 3000 nM
IC50 (second compound 1 µM): 1520 nM
viability, T/C (second compound 0.00316 µM, first compound 0.00949 µM): 83.2%
viability, T/C (second compound 0.00316 µM, first compound 0.03 µM): 78.1%
viability, T/C (second compound 0.00316 µM, first compound 0.0949 µM): 81.8%
viability, T/C (second compound 0.00316 µM, first compound 0.3 µM): 92.6%
viability, T/C (second compound 0.00316 µM, first compound 0.949 µM): 87.3%
viability, T/C (second compound 0.00316 µM, first compound 3 µM): 56.7%
viability, T/C (second compound 0.01 µM, first compound 0.00949 µM): 80%
viability, T/C (second compound 0.01 µM, first compound 0.03 µM): 88.9%
viability, T/C (second compound 0.01 µM, first compound 0.0949 µM): 79.9%
viability, T/C (second compound 0.01 µM, first compound 0.3 µM): 90.4%
viability, T/C (second compound 0.01 µM, first compound 0.949 µM): 73.9%
viability, T/C (second compound 0.01 µM, first compound 3 µM): 61.9%
viability, T/C (second compound 0.0316 µM, first compound 0.00949 µM): 103%
viability, T/C (second compound 0.0316 µM, first compound 0.03 µM): 86.4%
viability, T/C (second compound 0.0316 µM, first compound 0.0949 µM): 86.3%
viability, T/C (second compound 0.0316 µM, first compound 0.3 µM): 83%
viability, T/C (second compound 0.0316 µM, first compound 0.949 µM): 63.9%
viability, T/C (second compound 0.0316 µM, first compound 3 µM): 58.6%
viability, T/C (second compound 0.1 µM, first compound 0.00949 µM): 91.3%
viability, T/C (second compound 0.1 µM, first compound 0.03 µM): 73.5%
viability, T/C (second compound 0.1 µM, first compound 0.0949 µM): 70.5%
viability, T/C (second compound 0.1 µM, first compound 0.3 µM): 77.5%
viability, T/C (second compound 0.1 µM, first compound 0.949 µM): 66.7%
viability, T/C (second compound 0.1 µM, first compound 3 µM): 48.9%
viability, T/C (second compound 0.316 µM, first compound 0.00949 µM): 81.3%
viability, T/C (second compound 0.316 µM, first compound 0.03 µM): 78.6%
viability, T/C (second compound 0.316 µM, first compound 0.0949 µM): 64.4%
viability, T/C (second compound 0.316 µM, first compound 0.3 µM): 67%
viability, T/C (second compound 0.316 µM, first compound 0.949 µM): 64.1%
viability, T/C (second compound 0.316 µM, first compound 3 µM): 48.9%
viability, T/C (second compound 1 µM, first compound 0.00949 µM): 79.4%
viability, T/C (second compound 1 µM, first compound 0.03 µM): 63.7%
viability, T/C (second compound 1 µM, first compound 0.0949 µM): 77%
viability, T/C (second compound 1 µM, first compound 0.3 µM): 69.7%
viability, T/C (second compound 1 µM, first compound 0.949 µM): 55.1%
viability, T/C (second compound 1 µM, first compound 3 µM): 39%

CCN1CCN(Cc2ccc(Nc3ncc(F)c(-c4cc(F)c5nc(C)n(C(C)C)c5c4)n3)nc2)CC1 + Cc1nc(NC(=O)N2CCCC2C(N)=O)sc1-c1ccnc(C(C)(C)C(F)(F)F)c1
IC50 (second compound 0.0316 µM): > 1000 nM
IC50 (second compound 0.1 µM): > 1000 nM
IC50 (second compound 0.316 µM): > 1000 nM
IC50 (second compound 1 µM): 798 nM
IC50 (second compound 3.16 µM): 191 nM
IC50 (second compound 10 µM): < 3.16 nM
viability, T/C (second compound 0.0316 µM, first compound 0.00316 µM): 97.9%
viability, T/C (second compound 0.0316 µM, first compound 0.01 µM): 90%
viability, T/C [1]: 83.8%
viability, T/C [2]: 113%
viability, T/C [3]: 90.8%
viability, T/C [4]: 59.9%
viability, T/C (second compound 0.1 µM, first compound 0.00316 µM): 98.3%
viability, T/C (second compound 0.1 µM, first compound 0.01 µM): 85.9%
viability, T/C [5]: 89.1%
viability, T/C [6]: 104%
viability, T/C [7]: 97.9%
viability, T/C [8]: 55.3%
viability, T/C (second compound 0.316 µM, first compound 0.00316 µM): 92.4%
viability, T/C (second compound 0.316 µM, first compound 0.01 µM): 94%
viability, T/C [9]: 93.2%
viability, T/C [10]: 81.3%
viability, T/C [11]: 80.9%
viability, T/C [12]: 52.7%
viability, T/C (second compound 1 µM, first compound 0.00316 µM): 94.9%
viability, T/C (second compound 1 µM, first compound 0.01 µM): 84.8%
viability, T/C [13]: 77%
viability, T/C [14]: 76.9%
viability, T/C [15]: 62.1%
viability, T/C [16]: 46.2%
viability, T/C (second compound 3.16 µM, first compound 0.00316 µM): 68.7%
viability, T/C (second compound 3.16 µM, first compound 0.01 µM): 58.7%
viability, T/C [17]: 61.1%
viability, T/C [18]: 64.8%
viability, T/C [19]: 37.7%
viability, T/C [20]: 41.6%
viability, T/C (second compound 10 µM, first compound 0.00316 µM): 39.1%
viability, T/C (second compound 10 µM, first compound 0.01 µM): 27.3%
viability, T/C [21]: 29.8%
viability, T/C [22]: 25.3%
viability, T/C [23]: 22%
viability, T/C [24]: 23.5%

CNC(=O)c1ccc(N2C(=S)N(c3ccc(C#N)c(C(F)(F)F)c3)C(=O)C2(C)C)cc1F + Cc1nc(NC(=O)N2CCCC2C(N)=O)sc1-c1ccnc(C(C)(C)C(F)(F)F)c1
IC50 (second compound 0.0316 µM): > 10000 nM
IC50 (second compound 0.1 µM): > 10000 nM
IC50 (second compound 0.316 µM): > 10000 nM
IC50 (second compound 1 µM): > 10000 nM
IC50 (second compound 3.16 µM): 4900 nM
IC50 (second compound 10 µM): < 31.6 nM
viability, T/C [1]: 96.8%
viability, T/C [2]: 97.2%
viability, T/C [3]: 83.9%
viability, T/C [4]: 114%
viability, T/C (second compound 0.0316 µM, first compound 3.16 µM): 97.4%
viability, T/C (second compound 0.0316 µM, first compound 10 µM): 62.5%
viability, T/C [5]: 92.4%
viability, T/C [6]: 101%
viability, T/C [7]: 96.2%
viability, T/C [8]: 106%
viability, T/C (second compound 0.1 µM, first compound 3.16 µM): 82.8%
viability, T/C (second compound 0.1 µM, first compound 10 µM): 52.2%
viability, T/C [9]: 99.8%
viability, T/C [10]: 78.2%
viability, T/C [11]: 73.3%
viability, T/C [12]: 103%
viability, T/C (second compound 0.316 µM, first compound 3.16 µM): 74.6%
viability, T/C (second compound 0.316 µM, first compound 10 µM): 59%
viability, T/C [13]: 97%
viability, T/C [14]: 76.9%
viability, T/C [15]: 67.4%
viability, T/C [16]: 90.5%
viability, T/C (second compound 1 µM, first compound 3.16 µM): 59.2%
viability, T/C (second compound 1 µM, first compound 10 µM): 58%
viability, T/C [17]: 79.8%
viability, T/C [18]: 64.5%
viability, T/C [19]: 65.3%
viability, T/C [20]: 74.8%
viability, T/C (second compound 3.16 µM, first compound 3.16 µM): 49.4%
viability, T/C (second compound 3.16 µM, first compound 10 µM): 42.5%
viability, T/C [21]: 39.8%
viability, T/C [22]: 28.3%
viability, T/C [23]: 35.4%
viability, T/C [24]: 29.4%
viability, T/C (second compound 10 µM, first compound 3.16 µM): 25.2%
viability, T/C (second compound 10 µM, first compound 10 µM): 25.6%
